Experimental data taken from US20190022073A1, “PHARMACEUTICAL COMPOSITION COMPRISING RAPAMYCIN OR DERIVATIVE THEREOF” (NIPPON KAYAKU KABUSHIKI KAISHA, priority 2015, published 2019).

Experiment: pH of the stabilizer (additive) in water/ethanol mixture, measured by pH meter MM-60R (TOA DKK)
Settings: 5 mg/mL in water/EtOH=1:1 mixture
Description: The pH of the (B) component can be measured by preparing 50% (v/v) ethanol aqueous solution containing 5 mg/mL of the (B) component, and measuring pH using commercially available pH meter. For example, pH can be measured by using MM-60R (TOA DKK).

Row | Structure (SMILES) | pH of the additive used as stabilizer
1 | O=C1O[C@H]([C@@H](O)CO)C([O-])=C1O.[Na+] [sodium ascorbate] | 8.4
2 | O=C([O-])CC(O)(CC(=O)[O-])C(=O)O.[Na+].[Na+] [disodium hydrogen citrate] | 6.3
